Results reported in paper PMC7178819, “6,7-Dimethoxy-2-phenethyl-1,2,3,4-tetrahydroisoquinoline amides and corresponding ester isosteres as multidrug resistance reversers” (Journal of Enzyme Inhibition and Medicinal Chemistry, 2020).
Marks after values point to notes of the source that are not given here.

Experiments:
BCRP = target: T1, BCRP (Homo sapiens, UniProt Q9UNQ0); assay: Inhibition of Hoechst 33342 efflux in MDCK-BCRP cells; assay type: cell-based; conditions: for EC50: Hoechst 33342, MDCK-BCRP cells, NA: not active; for BCRP, percentage of the effect: at a concentration of 100 μM, MDCK-BCRP cells
T1 construct: expressed in transfected cells; host or cells: MDCK-BCRP (Madin-Darby Canine Kidney cells, gift of Prof. P. Borst, NKI-AVL)
T1 sequence (Q9UNQ0 1-655): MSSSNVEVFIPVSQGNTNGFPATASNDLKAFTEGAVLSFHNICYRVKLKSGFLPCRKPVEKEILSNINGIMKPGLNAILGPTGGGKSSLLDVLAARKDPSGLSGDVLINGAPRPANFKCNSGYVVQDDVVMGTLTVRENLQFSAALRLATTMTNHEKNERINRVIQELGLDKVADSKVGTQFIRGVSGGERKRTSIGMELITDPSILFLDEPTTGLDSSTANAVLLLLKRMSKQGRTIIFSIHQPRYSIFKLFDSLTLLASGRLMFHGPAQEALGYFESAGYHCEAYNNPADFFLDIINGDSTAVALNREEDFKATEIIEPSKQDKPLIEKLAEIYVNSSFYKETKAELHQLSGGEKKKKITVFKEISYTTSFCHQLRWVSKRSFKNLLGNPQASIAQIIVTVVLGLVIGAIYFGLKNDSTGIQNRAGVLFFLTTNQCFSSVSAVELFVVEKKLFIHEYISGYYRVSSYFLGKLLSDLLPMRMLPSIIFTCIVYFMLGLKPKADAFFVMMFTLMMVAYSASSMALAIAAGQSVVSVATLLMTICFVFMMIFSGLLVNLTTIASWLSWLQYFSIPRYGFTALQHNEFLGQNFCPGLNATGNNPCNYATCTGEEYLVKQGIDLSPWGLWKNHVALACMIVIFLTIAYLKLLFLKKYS
Description: These experiments were carried out as described by Teodori et al.[34]. Each cell line (30 000 cells per well) was seeded into black CulturePlate 96/wells plate with 100 µL medium and allowed to become confluent overnight. 100 µL of test compounds were solubilised in culture medium and added to monolayers, with final concentrations ranging from 1 to 100 µM. 96/Wells plate was incubated for 30 min in a humidified atmosphere 5% CO2 at 37 °C. Hoechst 33342 was added in 100 µl of phosphate-buffered saline (PBS) to yield a final concentration of 8 µM and plate was incubated for 30 min in a humidified atmosphere 5% CO2 at 37 °C. The supernatants were drained, and the cells were fixed for 20 min under light protection using 100 µL per well of a 4% PFA solution. Each well was washed three times with ice cold PBS. Saline buffer was added to each well and the plate was read with Victor3 (PerkinElmer) at excitation and emission wavelengths of 340/35 nm and 485/20 nm, respectively. In these experimental conditions, Hoechst 33342 accumulation in the absence and in the presence of tested compounds was evaluated and fluorescence basal level was estimated with untreated cells. In treated wells, the increase of fluorescence with respect to basal level was measured. EC50 values were determined by fitting the fluorescence increase percentage versus log[dose]. […]

[1] = Apparent permeability (Papp) determination (BA/AB) in Caco-2 cell monolayer; assay type: in vitro ADME; conditions: human, Caco-2 monolayer
How it was run: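 Caco-2 monolayers cultured 21 days (TEER monitored, >1000 Ω optimal); compounds added at 100 µM in HBSS to the filter well, 120 min at 37 °C, then apical and basolateral sides sampled. Papp ratio BA/AB computed; ratio >2 taken as indicating P-gp substrate.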

[2] = Stability test in human plasma (LC-MS/MS); assay type: in vitro ADME; conditions: human, human plasma, 1 µM, 37 °C
How it was run: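 Analyte at 1 µM in human plasma or PBS; after incubation, internal standard added, centrifuged, supernatant dried and redissolved in formic acid/acetonitrile 80:20. LC-MS/MS in MRM mode; first-order degradation rate k taken as slope of ln concentration versus incubation time.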

Structure (SMILES)	EC50 (BCRP)	efflux ratio at 120 min, 100 µM [1]	half-life at 1 µM [2]	BCRP, percentage of the effect (BCRP)
COc1cc2c(cc1OC)CN(CCc1ccc(NC(=O)c3ccc(OC)c(OC)c3OC)cc1)CC2 [Compound 1, N-(4–(2-(6,7-dimethoxy-3,4-dihydroisoquinolin-2(1H)-yl)ethyl)phenyl)-2,3,4-trimethoxybenzamide]	21.2 ± 4.2 µM	7	≥ 4 h	–
COc1ccc(C(=O)Nc2ccc(CCN3CCc4cc(OC)c(OC)cc4C3)cc2)c(OC)c1 [Compound 3, N-(4–(2-(6,7-dimethoxy-3,4-dihydroisoquinolin-2(1H)-yl)ethyl)phenyl)-2,4-dimethoxybenzamide]	1 ± 0.2 µM	7.4	≥ 4 h	–
COc1cc2c(cc1OC)CN(CCc1ccc(NC(=O)c3cccc(OC)c3OC)cc1)CC2 [Compound 5, N-(4–(2-(6,7-dimethoxy-3,4-dihydroisoquinolin-2(1H)-yl)ethyl)phenyl)-2,3-dimethoxybenzamide]	–	5	≥ 4 h	41%^d
COc1cc2c(cc1OC)CN(CCc1ccc(NC(=O)c3c(OC)c(OC)cc4ccccc34)cc1)CC2 [Compound 8, N-(4–(2-(6,7-dimethoxy-3,4-dihydroisoquinolin-2(1H)-yl)ethyl)phenyl)-2,3-dimethoxy-1-naphthamide]	–	5.5	≥ 4 h	–
COc1cc2c(cc1OC)CN(CCc1ccc(OC(=O)c3ccc(OC)c(OC)c3OC)cc1)CC2 [Compound 14, 4–(2-(6,7-Dimethoxy-3,4-dihydroisoquinolin-2(1H)-yl)ethyl)phenyl 2,3,4-trimethoxybenzoate]	15.1 ± 2.89 µM	9	≥ 4 h	–
COc1cc2c(cc1OC)CN(CCc1ccc(OC(=O)c3ccccc3OC)cc1)CC2 [Compound 15, 4–(2-(6,7-Dimethoxy-3,4-dihydroisoquinolin-2(1H)-yl)ethyl)phenyl 2-methoxybenzoate]	–	5.4	1.05 ± 0.233 h	47%^d

Other lines, results leading:

EC50 (BCRP)	efflux ratio at 120 min, 100 µM [1]	half-life at 1 µM [2]	BCRP, percentage of the effect (BCRP)	Structure (SMILES)
11 ± 2 µM	7.1	1.47 ± 0.367 h	–	COc1ccc(C(=O)Oc2ccc(CCN3CCc4cc(OC)c(OC)cc4C3)cc2)c(OC)c1 [Compound 16, 4–(2-(6,7-Dimethoxy-3,4-dihydroisoquinolin-2(1H)-yl)ethyl)phenyl 2,4-dimethoxybenzoate]
–	4.1	0.9 ± 0.15 h	44%^d	COc1cc2c(cc1OC)CN(CCc1ccc(OC(=O)c3cccc(OC)c3OC)cc1)CC2 [Compound 18, 4–(2-(6,7-Dimethoxy-3,4-dihydroisoquinolin-2(1H)-yl)ethyl)phenyl 2,3-dimethoxybenzoate]
–	5.1	≥ 4 h	35%^d	COc1cc2c(cc1OC)CN(CCc1ccc(OC(=O)c3cccc4ccccc34)cc1)CC2 [Compound 19, 4–(2-(6,7-Dimethoxy-3,4-dihydroisoquinolin-2(1H)-yl)ethyl)phenyl 1-naphthoate]
7.3 ± 1.4 µM	4.8	≥ 4 h	–	COc1cc2c(cc1OC)CN(CCc1ccc(OC(=O)c3c(OC)ccc4ccccc34)cc1)CC2 [Compound 20, 4–(2-(6,7-Dimethoxy-3,4-dihydroisoquinolin-2(1H)-yl)ethyl)phenyl 2-methoxy-1-naphthoate]
–	5.4	≥ 4 h	43%^d	COc1cc2c(cc1OC)CN(CCc1ccc(OC(=O)c3c(OC)c(OC)cc4ccccc34)cc1)CC2 [Compound 21, 4–(2-(6,7-Dimethoxy-3,4-dihydroisoquinolin-2(1H)-yl)ethyl)phenyl 2,3-dimethoxy-1-naphthoate]
